Source: article PMC3265452 (PLoS Neglected Tropical Diseases, 2012)
Where a name gives a salt, the structure may show the parent alone. Read-outs that look alike come from different tables or passages of the source.

Target: AaDOP2 (Aedes aegypti, UniProt H6D5H2)
Test: AaDOP2 antagonist screen of the LOPAC1280 library (HEK-CRELuc-Aadop2 cells, luminescence)
Type: cell-based
Conditions: for inhibition at 10 µM: read-out: % of the SCH23390 effect (percent inhibition of receptor response relative to the SCH23390 control)
[1] = 10 µM compound, 300 nM dopamine, 2 hr, hit = compound effect <20

AaDOP2, sequence (H6D5H2 1-476): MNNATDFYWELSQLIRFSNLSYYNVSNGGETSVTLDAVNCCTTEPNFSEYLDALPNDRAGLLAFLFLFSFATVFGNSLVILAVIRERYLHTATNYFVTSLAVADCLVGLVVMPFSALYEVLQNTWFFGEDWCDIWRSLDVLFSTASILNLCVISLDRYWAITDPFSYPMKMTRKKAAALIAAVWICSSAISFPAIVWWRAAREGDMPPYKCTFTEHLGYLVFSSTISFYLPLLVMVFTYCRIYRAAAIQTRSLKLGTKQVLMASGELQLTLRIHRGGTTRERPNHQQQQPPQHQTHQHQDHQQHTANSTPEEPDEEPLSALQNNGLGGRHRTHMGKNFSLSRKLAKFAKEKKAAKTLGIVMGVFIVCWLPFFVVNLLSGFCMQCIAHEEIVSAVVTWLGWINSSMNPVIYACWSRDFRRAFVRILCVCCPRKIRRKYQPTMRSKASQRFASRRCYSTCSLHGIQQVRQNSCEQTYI

Row | Structure (SMILES) | Compound effect (percent receptor signaling in presence of test compound, relative lux units relative to the SCH23390 control) | other results
1 | CN1CCC(=C2c3ccccc3CC(=O)c3sccc32)CC1 [Compound 687, Ketotifen fumarate] | 4 | inhibition at 10 µM: 96%
2 | O=C(O)c1cc(=O)c2ccccc2[nH]1 [Compound 688, Kynurenic acid] | 99 | –
3 | O=C1Cc2c([nH]c3ccc(Br)cc23)-c2ccccc2N1 [Compound 689, Kenpaullone] | 17 | inhibition at 10 µM: 83%
4 | CCN1C[C@]2(C)CC[C@H](O)[C@]34C1[C@@H](C[C@H]23)[C@@]1(O)C[C@H](OC)[C@H]2C[C@@H]4[C@@H]1[C@H]2O [Compound 690, Karakoline] | 101 | –
5 | O=c1[nH]c2cc(Cl)ccc2c(O)c1-c1cccc(Oc2ccccc2)c1 [Compound 691, L-701,324] | 90 | –
6 | CC(C(=O)O)c1ccc(CC2CCCC2=O)cc1 (centres unmarked) [Compound 692, loxoprofen] | 92 | –
7 | CC(CCc1ccccc1)NCC(O)c1ccc(O)c(C(N)=O)c1 (centres unmarked) [Compound 693, Labetalol hydrochloride] | 83 | –
8 | CCCCOC(=O)NS(=O)(=O)c1sc(CC(C)C)cc1-c1ccc(Cn2c(CC)nc3c(C)cc(C)nc32)cc1 [Compound 694, L-162,313] | 99 | –
9 | CC[N+](C)(CC)CC(=O)Nc1c(C)cccc1C.[Cl-] [Compound 695, Lidocaine N-methyl hydrochloride] | 92 | –
10 | CC1(C)CCC2=C(O1)c1ccccc1C(=O)C2=O [Compound 696, beta-Lapachone] | 14 | inhibition at 10 µM: 86%
11 | O=S1(=O)N(CCN2CC=C(c3c[nH]c4cc(F)ccc34)CC2)c2cccc3c2N1CCC3 [Compound 697, LY-367,265] | 29 | –
12 | CC1(C)C(=O)N(CCN2CCC(C(=O)c3ccc(F)cc3)CC2)c2ccccc21.Cl [Compound 698, LY-310,762 hydrochloride] | – | % of the SCH23390 effect (percent inhibition of receptor response relative to the SCH23390 control) (10 µM compound, 300 nM dopamine, 2 hr): 81%; Compound effect (percent receptor signaling in presence of test compound, relative lux units relative to the SCH23390 control) [1]: 19%
13 | Cc1ccccc1N1CCN(S(=O)(=O)C[C@]23CC[C@H](C[C@@H]2NC(=O)[C@@H](N)CCS(C)(=O)=O)C3(C)C)CC1 [Compound 699, L-368,899] | 94 | –
14 | CCn1cc(C(=O)O)c(=O)c2cc(F)c(N3CCNC(C)C3)c(F)c21 (centres unmarked) [Compound 700, Lomefloxacin hydrochloride] | 90 | –
15 | Nc1nnc(-c2cccc(Cl)c2Cl)c(N)n1 [Compound 701, Lamotrigine] | 87 | –
16 | CN1[C@@H](CC(=O)c2ccccc2)CCC[C@H]1C[C@H](O)c1ccccc1.Cl [Compound 702, alpha-Lobeline hydrochloride] | 89 | –
17 | CN(C)C(=O)C(CCN1CCC(O)(c2ccc(Cl)cc2)CC1)(c1ccccc1)c1ccccc1 [Compound 703, Loperamide hydrochloride] | 83 | –
18 | O=C(O)c1nn(Cc2ccc(Cl)cc2Cl)c2ccccc12 [Compound 704, Lonidamine] | 90 | –
19 | Cc1oncc1C(=O)Nc1ccc(C(F)(F)F)cc1 [Compound 705, Leflunomide] | 97 | –
20 | CN1CCc2ccccc2Cc2[nH]c3ccccc3c2CC1 [Compound 710, LE 300] | 1 | % of the SCH23390 effect (percent inhibition of receptor response relative to the SCH23390 control): 99%
21 | Cc1c(OCC(F)(F)F)ccnc1C[S+]([O-])c1nc2ccccc2[nH]1 (centres unmarked) [Compound 711, Lansoprazole] | 91 | –
22 | Cl.c1ccc(CN2CCC3(CCCc4ccccc43)CC2)cc1 [Compound 712, L-687,384 hydrochloride] | 87 | –
23 | C/C(O)=C(\C#N)C(=O)Nc1cc(Br)ccc1Br [Compound 713, LFM-A13] | 98 | –
24 | O=c1cc(-c2ccc(O)c(O)c2)oc2cc(O)cc(O)c12 [Compound 714, Luteolin] | 87 | –
25 | Cc1c(CC(C)(C)C(=O)O)n(Cc2ccc(Cl)cc2)c2ccc(F)cc12 [Compound 715, L-655,240] | 73 | –

Row | Structure (SMILES) | Compound effect (percent receptor signaling in presence of test compound, relative lux units relative to the SCH23390 control) | other results
26 | CCOC(=O)N1CCC(=C2c3ccc(Cl)cc3CCc3cccnc32)CC1 [Compound 716, Loratadine] | 88 | –
27 | Cl.c1ccc([C@H]2CN3CCSC3=N2)cc1 [Compound 717, (-)-Tetramisole hydrochloride] | 90 | –
28 | CCOC(=O)c1ncn2c1[C@@H]1CCCN1C(=O)c1cc(OC)ccc1-2 [Compound 718, L-655,708] | 90 | –
29 | Cl.O=c1cc(N2CCOCC2)oc2c(-c3ccccc3)cccc12 [Compound 719, LY-294,002 hydrochloride] | 53 | –
30 | CN1CCN(C2=Nc3ccccc3Oc3ccc(Cl)cc32)CC1 [Compound 720, Loxapine succinate] | 3 | inhibition at 10 µM: 97%
31 | CC(O)C(C)OC(=O)[C@@H]1C[C@@H]2c3cccc4c3c(cn4C(C)C)C[C@H]2N(C)C1.O=C(O)/C=C\C(=O)O (some centres unmarked) [Compound 721, LY-53,857 maleate] | – | Compound effect (percent receptor signaling in presence of test compound, relative lux units relative to the SCH23390 control) [1]: 73%
32 | CCCCCN(CCCCC)C(=O)C(CCC(=O)O)NC(=O)c1ccc(Cl)c(Cl)c1 (centres unmarked) [Compound 722, Lorglumide sodium] | 122 | –
33 | CN1C2CCC1CC(NC(=O)c1nn(C)c3ccccc13)C2.O=C(O)/C=C\C(=O)O (centres unmarked) [Compound 723, LY-278,584 maleate] | – | Compound effect (percent receptor signaling in presence of test compound, relative lux units relative to the SCH23390 control) [1]: 92%
34 | Ic1ccccc1CNC1C2CCN(CC2)C1C(c1ccccc1)c1ccccc1.O=C(O)C(=O)O [Compound 725, L-703,606 oxalate] | 98 | –
35 | C=CCN1CC[C@]23CCCC[C@H]2[C@H]1Cc1ccc(O)cc13 [Compound 726, Levallorphan tartrate] | 93 | –
36 | Cl.Clc1ccc(N2CCN(Cc3c[nH]c4ncccc34)CC2)cc1 [Compound 728, L-745,870 hydrochloride] | 111 | –
37 | Cl.Cl.Cl.Ic1ccc(N2CCN(Cc3c[nH]c4ncccc34)CC2)cc1 [Compound 729, L-750,667 trihydrochloride] | – | Compound effect (percent receptor signaling in presence of test compound, relative lux units relative to the SCH23390 control) [1]: 107%
38 | O=C1N(c2ccccc2)c2ccccc2C1(Cc1ccncc1)Cc1ccncc1 [Compound 730, Linopirdine] | 106 | –
39 | OC1(c2ccc(Cl)cc2)CCN(Cc2c[nH]c3ccccc23)CC1 [Compound 731, L-741,626] | 104 | –
40 | Cl.FC(F)(F)c1cc(CO[C@H]2CCCN[C@H]2c2ccccc2)cc(C(F)(F)F)c1 [Compound 732, L-733,060 hydrochloride] | – | Compound effect (percent receptor signaling in presence of test compound, relative lux units relative to the SCH23390 control) [1]: 94%
41 | CCN(CC)CCNC(=O)c1cc(Cl)c(N)cc1OC.Cl [Compound 733, Metoclopramide hydrochloride] | – | Compound effect (percent receptor signaling in presence of test compound, relative lux units relative to the SCH23390 control) [1]: 101%
42 | COc1cc(CNC(=O)CCCCCCC(C)C)ccc1O [Compound 735, Dihydrocapsaicin] | 102 | –
43 | COc1ccc2cc([C@H](C)C(=O)[O-])ccc2c1.[Na+] [Compound 736, (-)-Naproxen sodium] | – | Compound effect (percent receptor signaling in presence of test compound, relative lux units relative to the SCH23390 control) [1]: 105%
44 | Cc1cn[nH]c1.Cl [Compound 737, 4-Methylpyrazole hydrochloride] | 111 | –
45 | COC(=O)Nc1nc2ccc(C(=O)c3cccs3)cc2[nH]1 [Compound 738, Nocodazole] | 89 | –
46 | CNCCc1c[nH]c2ccc(O)cc12.O=C(O)C(=O)O [Compound 739, N-omega-Methyl-5-hydroxytryptamine oxalate salt] | 115 | –
47 | COc1nc(C)nc(Cl)c1NC1=NCCN1.Cl [Compound 740, Moxonidine hydrochloride] | – | Compound effect (percent receptor signaling in presence of test compound, relative lux units relative to the SCH23390 control) [1]: 94%
48 | C#CCN1C(C)=C(C(=O)OC)C(c2cccc([N+](=O)[O-])c2)C(C(=O)OCC)=C1C (centres unmarked) [Compound 741, MRS 1845] | 101 | –
49 | CN1C[C@H](O)[C@@H](O)[C@H](O)[C@H]1CO [Compound 742, N-Methyl-1-deoxynojirimycin] | – | Compound effect (percent receptor signaling in presence of test compound, relative lux units relative to the SCH23390 control) [1]: 101%
50 | CCCOC(=O)c1c(-c2ccccc2)nc(CC)c(C(=O)SCC)c1CCC [Compound 743, MRS 1523] | 101 | –
